Results: the NIST ThermoML archive (doi:10.1016/j.jct.2006.10.017)

Experiments:
[1] = refractive index (Na D-line) (dimensionless); xn = mol fraction of the nth substance listed; settings: 101 kPa, Liquid
[2] = xn = mol fraction of the nth substance listed; settings: 101 kPa, Liquid

CCCCn1cc[n+](C)c1.COS(=O)(=O)[O-] [1-butyl-3-methylimidazolium methyl sulfate] + CCO
Settings | mass density, 293.15 K [kg/m3] | mass density, 298.15 K [kg/m3] | mass density, 303.15 K [kg/m3] | refractive index, 293.15 K | refractive index, 298.15 K | refractive index, 303.15 K | speed of sound, 293.15 K [m/s] | speed of sound, 298.15 K [m/s] | speed of sound, 303.15 K [m/s]
[1], x1 = 0.0501 | – | – | – | 1.38149 | 1.3797 | 1.37885 | – | – | –
[1], x1 = 0.1015 | – | – | – | 1.39827 | 1.39667 | 1.39541 | – | – | –
[1], x1 = 0.1961 | – | – | – | 1.42043 | 1.41884 | 1.41656 | – | – | –
[1], x1 = 0.299 | – | – | – | 1.43625 | 1.43478 | 1.43335 | – | – | –
[1], x1 = 0.3914 | – | – | – | 1.44713 | 1.4456 | 1.44408 | – | – | –
[1], x1 = 0.5025 | – | – | – | 1.45714 | 1.45586 | 1.45509 | – | – | –
[1], x1 = 0.6073 | – | – | – | 1.46429 | 1.46284 | 1.46136 | – | – | –
[1], x1 = 0.6982 | – | – | – | 1.46926 | 1.4678 | 1.46639 | – | – | –
[1], x1 = 0.8002 | – | – | – | 1.47391 | 1.47249 | 1.47111 | – | – | –
[1], x1 = 0.8992 | – | – | – | 1.47757 | 1.47623 | 1.47485 | – | – | –
[1], x1 = 0.9498 | – | – | – | 1.47901 | 1.47766 | 1.47622 | – | – | –
[1], x1 = 1 | – | – | – | 1.48077 | 1.47942 | 1.47806 | – | – | –
[2], x1 = 0.0501 | 860.2 | 856.4 | 852.2 | – | – | – | 1218 | 1203 | 1189
[2], x1 = 0.1015 | 916.9 | 913 | 909 | – | – | – | 1277 | 1262 | 1248
[2], x1 = 0.1961 | 993.7 | 990 | 986.2 | – | – | – | 1358 | 1343 | 1324
[2], x1 = 0.299 | 1052.2 | 1048.6 | 1044.9 | – | – | – | 1425 | 1412 | 1392
[2], x1 = 0.3914 | 1091.3 | 1087.8 | 1084.1 | – | – | – | 1479 | 1466 | 1446
[2], x1 = 0.5025 | 1127.3 | 1123.7 | 1120.1 | – | – | – | 1538 | 1525 | 1508
[2], x1 = 0.6073 | 1153.5 | 1150 | 1146.5 | – | – | – | 1576 | 1563 | 1553
[2], x1 = 0.6982 | 1172 | 1168.5 | 1165 | – | – | – | 1598 | 1584 | 1574
[2], x1 = 0.8002 | 1189.2 | 1185.6 | 1182.2 | – | – | – | 1626 | 1612 | 1602
[2], x1 = 0.8992 | 1203.1 | 1199.7 | 1196.3 | – | – | – | 1650 | 1636 | 1626
[2], x1 = 0.9498 | 1209.5 | 1206.1 | 1202.7 | – | – | – | 1659 | 1645 | 1633
[2], x1 = 1 | 1215.6 | 1212.2 | 1208.8 | – | – | – | 1671 | 1658 | 1645

CCO [ethanol] + CCCCCCCC[n+]1ccn(C)c1.F[P-](F)(F)(F)(F)F
x2 = 0
Settings | mass density, 293.15 K [kg/m3] | mass density, 298.15 K [kg/m3] | mass density, 303.15 K [kg/m3] | refractive index, 293.15 K | refractive index, 298.15 K | refractive index, 303.15 K | speed of sound, 293.15 K [m/s] | speed of sound, 298.15 K [m/s] | speed of sound, 303.15 K [m/s]
[1] | – | – | – | 1.36138 | 1.35929 | 1.35725 | – | – | –
[2] | 789.3 | 785.1 | 780.7 | – | – | – | 1160 | 1143 | 1127

CCO [ethanol] + CCCCn1cc[n+](C)c1.COS(=O)(=O)[O-]
x2 = 0
Settings | mass density, 293.15 K [kg/m3] | mass density, 298.15 K [kg/m3] | mass density, 303.15 K [kg/m3] | refractive index, 293.15 K | refractive index, 298.15 K | refractive index, 303.15 K | speed of sound, 293.15 K [m/s] | speed of sound, 298.15 K [m/s] | speed of sound, 303.15 K [m/s]
[1] | – | – | – | 1.36138 | 1.35929 | 1.35725 | – | – | –
[2] | 789.3 | 785.1 | 780.7 | – | – | – | 1160 | 1143 | 1127

CCO [ethanol] + CCCCn1cc[n+](C)c1.F[P-](F)(F)(F)(F)F
x2 = 0
Settings | mass density, 293.15 K [kg/m3] | mass density, 298.15 K [kg/m3] | mass density, 303.15 K [kg/m3] | refractive index, 293.15 K | refractive index, 298.15 K | refractive index, 303.15 K | speed of sound, 293.15 K [m/s] | speed of sound, 298.15 K [m/s] | speed of sound, 303.15 K [m/s]
[1] | – | – | – | 1.36138 | 1.35929 | 1.35725 | – | – | –
[2] | 789.3 | 785.1 | 780.7 | – | – | – | 1160 | 1143 | 1127

CCO [ethanol] + COS(=O)(=O)[O-].Cn1cc[n+](C)c1
x2 = 0
Settings | mass density, 293.15 K [kg/m3] | mass density, 298.15 K [kg/m3] | mass density, 303.15 K [kg/m3] | refractive index, 293.15 K | refractive index, 298.15 K | refractive index, 303.15 K | speed of sound, 293.15 K [m/s] | speed of sound, 298.15 K [m/s] | speed of sound, 303.15 K [m/s]
[1] | – | – | – | 1.36138 | 1.35929 | 1.35725 | – | – | –
[2] | 789.3 | 785.1 | 780.7 | – | – | – | 1160 | 1143 | 1127

CCCCCCCC[n+]1ccn(C)c1.F[P-](F)(F)(F)(F)F [1-octyl-3-methylimidazolium hexafluorophosphate] + CCO
Settings | mass density, 293.15 K [kg/m3] | mass density, 298.15 K [kg/m3] | mass density, 303.15 K [kg/m3] | refractive index, 293.15 K | refractive index, 298.15 K | refractive index, 303.15 K | speed of sound, 293.15 K [m/s] | speed of sound, 298.15 K [m/s] | speed of sound, 303.15 K [m/s]
[1], x1 = 0.0447 | – | – | – | 1.37484 | 1.37299 | 1.37124 | – | – | –
[1], x1 = 0.0982 | – | – | – | 1.38484 | 1.38315 | 1.38286 | – | – | –
[1], x1 = 0.1976 | – | – | – | 1.3975 | 1.3959 | 1.39478 | – | – | –
[1], x1 = 0.2897 | – | – | – | 1.40449 | 1.40291 | 1.40181 | – | – | –
[1], x1 = 0.3897 | – | – | – | 1.41009 | 1.40855 | 1.40752 | – | – | –
[1], x1 = 0.499 | – | – | – | 1.41448 | 1.41289 | 1.41174 | – | – | –
[1], x1 = 0.5896 | – | – | – | 1.41703 | 1.41553 | 1.41412 | – | – | –
[1], x1 = 0.708 | – | – | – | 1.41965 | 1.41817 | 1.41682 | – | – | –
[1], x1 = 0.8037 | – | – | – | 1.4215 | 1.42004 | 1.41858 | – | – | –
[1], x1 = 0.904 | – | – | – | 1.42304 | 1.42165 | 1.42026 | – | – | –
[1], x1 = 0.9502 | – | – | – | 1.42375 | 1.42231 | 1.42112 | – | – | –
[1], x1 = 1 | – | – | – | 1.4244 | 1.42302 | 1.42165 | – | – | –
[2], x1 = 0.0447 | 873.9 | 869.7 | 865.4 | – | – | – | 1180 | 1165 | 1151
[2], x1 = 0.0982 | 946.5 | 942.3 | 938.1 | – | – | – | 1206 | 1193 | 1180
[2], x1 = 0.1976 | 1035.8 | 1031.7 | 1027.5 | – | – | – | 1257 | 1245 | 1233
[2], x1 = 0.2897 | 1089.5 | 1085.3 | 1081.1 | – | – | – | 1295 | 1283 | 1271
[2], x1 = 0.3897 | 1130.4 | 1126.3 | 1122.2 | – | – | – | 1327 | 1315 | 1303
[2], x1 = 0.499 | 1162.8 | 1158.8 | 1154.8 | – | – | – | 1352 | 1340 | 1328
[2], x1 = 0.5896 | 1183.2 | 1179.3 | 1175.3 | – | – | – | 1369 | 1357 | 1344
[2], x1 = 0.708 | 1204.3 | 1200.4 | 1196.5 | – | – | – | 1386 | 1373 | 1360
[2], x1 = 0.8037 | 1217.9 | 1214 | 1210.2 | – | – | – | 1398 | 1385 | 1372
[2], x1 = 0.904 | 1229.9 | 1226 | 1222.2 | – | – | – | 1411 | 1397 | 1383
[2], x1 = 0.9502 | 1234.7 | 1230.9 | 1227.1 | – | – | – | 1416 | 1401 | 1387
[2], x1 = 1 | 1239.6 | 1235.7 | 1231.9 | – | – | – | 1424 | 1408 | 1393
